In US10829497B2, “Crystal form II of thienopyridine derivative bisulfate and preparation method therefor and use thereof” (ZHONGRONG KAITE (BEIJING) BIOTECHNOLOGY CO., LTD., priority 2017, dated 2020):
Where two headings read alike, the source gives them in different places.

Method: Stability Study of the Hydrogen Sulfate Crystal Form I and Form II of the Compound of Formula I Under High Temperature and High Humidity Conditions
Setting the hydrogen sulfate crystal form I and form II of the compound of formula I at temperature of 60° C. and high humidity (25° C., relative humidity of 90%±5%) respectively for 10 days. Samples were taken on the 0, 5th and 10th days and determined by high performance liquid chromatography to investigate the changes in impurities.
Chromatographic conditions: Agilent 1100 for high performance liquid chromatography; chromatographic column ULTRON ES-OVM (5 μm, 4.6 mm×150 mm); mobile phase 0.01 mol/L potassium dihydrogen phosphate aqueous solution-acetonitrile (80:20); detection wavelength 220 nm; column temperature 30° C.; flow rate 1.0 mL/min; injection volume 10 μL.
Test method: accurately weighting 5 mg of the test probe, placing it in a 10 mL volumetric flask, adding 1 mL of methanol, dissolving with ultrasound, diluting to the mark with mobile phase and shaking to make a test solution with a concentration of 0.5 mg/mL. Precisely injecting 10 μL of the test solution into the liquid chromatography, recording the chromatogram and calculating the total content of impurities according to peak area normalization method.

| Total Impurity Content (peak area %) (High Humidity (25° C., relative humidity of 90%±5%), 0 day, listed as I) | Total Impurity Content (peak area %) (High Humidity (25° C., relative humidity of 90%±5%), 5th day, listed as I) | Total Impurity Content (peak area %) (High Humidity (25° C., relative humidity of 90%±5%), 10th day, listed as I) | Total Impurity Growth Rate (High Humidity (25° C., relative humidity of 90%±5%), 10 days, listed as I) | Total Impurity Content (peak area %) (High Temperature (60° C.), 0 day, listed as I) | Total Impurity Content (peak area %) (High Temperature (60° C.), 5th day, listed as I) | Total Impurity Content (peak area %) (High Temperature (60° C.), 10th day, listed as I) | Total Impurity Growth Rate (High Temperature (60° C.), 10 days, listed as I) | Total Impurity Content (peak area %) (High Humidity (25° C., relative humidity of 90%±5%), 0 day, listed as II) | Total Impurity Content (peak area %) (High Humidity (25° C., relative humidity of 90%±5%), 5th day, listed as II) | Total Impurity Content (peak area %) (High Humidity (25° C., relative humidity of 90%±5%), 10th day, listed as II) | Total Impurity Growth Rate (High Humidity (25° C., relative humidity of 90%±5%), 10 days, listed as II) | Total Impurity Content (peak area %) (High Temperature (60° C.), 0 day, listed as II) | Total Impurity Content (peak area %) (High Temperature (60° C.), 5th day, listed as II) | Total Impurity Content (peak area %) (High Temperature (60° C.), 10th day, listed as II) | Total Impurity Growth Rate (High Temperature (60° C.), 10 days, listed as II) | stability compared with the hydrogen sulfate form I (high temperature and high humidity conditions, 10 days) | Compound |
| --- | --- | --- | --- | --- | --- | --- | --- | --- | --- | --- | --- | --- | --- | --- | --- | --- | --- |
| 0.386 peak area % | 0.438 peak area % | 0.576 peak area % | 49.2% | 0.386 peak area % | 0.597 peak area % | 0.812 peak area % | 110% |  |  |  |  |  |  |  |  |  | [2H]C([2H])([2H])OC(=O)[C@H](c1ccccc1Cl)N1CCc2sccc2C1 [Crystal Form I, Methyl-d3 (2S)-2-(2-chlorophenyl)-2-(6,7-dihydrothieno[3,2-c]pyridin-5(4H)-yl)acetate] |
|  |  |  |  |  |  |  |  | 0.372 peak area % | 0.409 peak area % | 0.533 peak area % | 43.3% | 0.372 peak area % | 0.526 peak area % | 0.737 peak area % | 98.1% | better stability | [2H]C([2H])([2H])OC(=O)[C@H](c1ccccc1Cl)N1CCc2sccc2C1 [Crystal Form II, Methyl-d3 (2S)-2-(2-chlorophenyl)-2-(6,7-dihydrothieno[3,2-c]pyridin-5(4H)-yl)acetate] |
